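How tested: cells in 96-well plates exposed to compound for 48 hours at five concentrations. Abbreviation: GI50, concentration required for 50% inhibition of growth.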 Calls of active or inactive are those of the source. No stated cut-off is given here; in the data, active = GI50 up to about 1.1 µM and inactive = higher.
Legend:
Test in all cases: NCI anticancer screen, dose series, 48 h
K562 = test system: K562
SK-MEL-28 = test system: SK-MEL-28
LOX IMVI = test system: LOX IMVI
MCF7 = test system: MCF7
TK-10 = test system: TK-10
SN12C = test system: SN12C
OVCAR-3 = test system: OVCAR-3
Hs-578T = test system: Hs-578T
SK-MEL-2 = test system: SK-MEL-2
SK-OV-3 = test system: SK-OV-3
MDA-MB-231 = test system: MDA-MB-231
PC-3 = test system: PC-3
NCI-H23 = test system: NCI-H23
SNB-75 = test system: SNB-75
BT-549 = test system: BT-549
HT-29 = test system: HT-29
HL-60 = test system: HL-60
HCC 2998 = test system: HCC 2998

Row | Structure (SMILES) | GI50 (K562) | GI50 (SK-MEL-28) | GI50 (LOX IMVI) | GI50 (MCF7) | GI50 (TK-10) | GI50 (SN12C) | GI50 (OVCAR-3) | GI50 (Hs-578T) | GI50 (SK-MEL-2) | GI50 (SK-OV-3) | GI50 (MDA-MB-231) | GI50 (PC-3) | GI50 (NCI-H23) | GI50 (SNB-75) | GI50 (BT-549) | GI50 (HT-29) | GI50 (HL-60) | GI50 (HCC 2998)
1 | NC(=O)CO/N=C1/C(=C2/C(=O)Nc3ccccc32)Nc2ccccc21 | 40 µM (inactive) | > 100 µM (inactive) | 1.04 µM (active) | 1.38 µM (inactive) | 3.85 µM (inactive) | > 100 µM (inactive) | 4.49 µM (inactive) | > 100 µM (inactive) | 2.4 µM (inactive) | 0.522 µM (active) | > 100 µM (inactive) | > 100 µM (inactive) | 0.811 µM (active) | > 100 µM (inactive) | 12.4 µM (inactive) | 2.12 µM (inactive) | 1.96 µM (inactive) | –
2 | CN(C(=O)Cc1ccc(Cl)c(Cl)c1)[C@@H]1CCCC[C@H]1[N+]1(C)CC=CC1 | > 100 µM (inactive) | > 100 µM (inactive) | > 100 µM (inactive) | > 100 µM (inactive) | > 100 µM (inactive) | > 100 µM (inactive) | > 100 µM (inactive) | – | > 100 µM (inactive) | > 100 µM (inactive) | > 100 µM (inactive) | > 100 µM (inactive) | > 100 µM (inactive) | – | > 100 µM (inactive) | > 100 µM (inactive) | > 100 µM (inactive) | > 100 µM (inactive)
3 | CCOC(=O)[C@H]1C[C@]23CN(C(=O)OC(C)(C)C)CC[C@H]2CCC2(SCCCS2)[C@@H]3N1C | 36.6 µM (inactive) | 91 µM (inactive) | 30.9 µM (inactive) | 38.7 µM (inactive) | 36.6 µM (inactive) | 21.3 µM (inactive) | 48.2 µM (inactive) | 51.6 µM (inactive) | 22.2 µM (inactive) | > 100 µM (inactive) | – | 25.2 µM (inactive) | 42 µM (inactive) | 72.9 µM (inactive) | 50.2 µM (inactive) | 22.5 µM (inactive) | 20.7 µM (inactive) | 22.8 µM (inactive)
4 | CCOP(=O)(/C=C\n1cc(C)c(=O)[nH]c1=O)OCC | > 100 µM (inactive) | > 100 µM (inactive) | > 100 µM (inactive) | > 100 µM (inactive) | > 100 µM (inactive) | > 100 µM (inactive) | > 100 µM (inactive) | – | > 100 µM (inactive) | > 100 µM (inactive) | > 100 µM (inactive) | > 100 µM (inactive) | > 100 µM (inactive) | > 100 µM (inactive) | > 100 µM (inactive) | > 100 µM (inactive) | > 100 µM (inactive) | –
5 | O=C(CC(C(=O)c1cccs1)c1ccsc1)c1ccc(Cl)s1 (centres undefined) | > 100 µM (inactive) | > 100 µM (inactive) | > 100 µM (inactive) | 97.1 µM (inactive) | > 100 µM (inactive) | > 100 µM (inactive) | – | 60.1 µM (inactive) | > 100 µM (inactive) | > 100 µM (inactive) | > 100 µM (inactive) | > 100 µM (inactive) | > 100 µM (inactive) | > 100 µM (inactive) | – | 75.9 µM (inactive) | 75.2 µM (inactive) | > 100 µM (inactive)
6 | Clc1sc(Cl)c2c1[C@@H](Cl)C[C@@H]2Br | 34.2 µM (inactive) | > 100 µM (inactive) | 33.8 µM (inactive) | 43.8 µM (inactive) | > 100 µM (inactive) | > 100 µM (inactive) | – | 65.8 µM (inactive) | > 100 µM (inactive) | > 100 µM (inactive) | > 100 µM (inactive) | > 100 µM (inactive) | 61.4 µM (inactive) | > 100 µM (inactive) | > 100 µM (inactive) | > 100 µM (inactive) | – | > 100 µM (inactive)
7 | c1ccc2c(c1)SCCCSCCSCCCS2 | > 100 µM (inactive) | > 100 µM (inactive) | > 100 µM (inactive) | > 100 µM (inactive) | > 100 µM (inactive) | > 100 µM (inactive) | > 100 µM (inactive) | – | – | > 100 µM (inactive) | 57.3 µM (inactive) | > 100 µM (inactive) | > 100 µM (inactive) | > 100 µM (inactive) | > 100 µM (inactive) | > 100 µM (inactive) | 39.4 µM (inactive) | > 100 µM (inactive)
8 | CC(=O)C(C)C(=O)N1C(=O)N(C)C2(C)N(C)C(=O)NC12C (centres undefined) | – | > 100 µM (inactive) | – | > 100 µM (inactive) | > 100 µM (inactive) | > 100 µM (inactive) | > 100 µM (inactive) | > 100 µM (inactive) | > 100 µM (inactive) | > 100 µM (inactive) | > 100 µM (inactive) | – | > 100 µM (inactive) | > 100 µM (inactive) | > 100 µM (inactive) | > 100 µM (inactive) | > 100 µM (inactive) | > 100 µM (inactive)

Source: ChEMBL document CHEMBL1201862, “PubChem BioAssay data set” (2004)
